Consider two compounds from BindingDB's records for doi:10.1016/j.ejmech.2019.02.074 (University of Hull, 2019).

Several values for one entry are separate records, joined by “and”; a condition that tells them apart may be missing. Equal entries are not always repeated.

The assay has as its target Transient receptor potential cation channel subfamily A member 1 (Homo sapiens, UniProt O75762). Kind of assay: Antagonist activity at human TRPA1 expressed in HEK293 cells assessed as inhibition of CA-induced increase in calcium influx incubated for 10 mins prior to CA addition by Fluo-4-AM dye based fluorescence assayy.

Chain of Transient receptor potential cation channel subfamily A member 1 (O75762 whole entry): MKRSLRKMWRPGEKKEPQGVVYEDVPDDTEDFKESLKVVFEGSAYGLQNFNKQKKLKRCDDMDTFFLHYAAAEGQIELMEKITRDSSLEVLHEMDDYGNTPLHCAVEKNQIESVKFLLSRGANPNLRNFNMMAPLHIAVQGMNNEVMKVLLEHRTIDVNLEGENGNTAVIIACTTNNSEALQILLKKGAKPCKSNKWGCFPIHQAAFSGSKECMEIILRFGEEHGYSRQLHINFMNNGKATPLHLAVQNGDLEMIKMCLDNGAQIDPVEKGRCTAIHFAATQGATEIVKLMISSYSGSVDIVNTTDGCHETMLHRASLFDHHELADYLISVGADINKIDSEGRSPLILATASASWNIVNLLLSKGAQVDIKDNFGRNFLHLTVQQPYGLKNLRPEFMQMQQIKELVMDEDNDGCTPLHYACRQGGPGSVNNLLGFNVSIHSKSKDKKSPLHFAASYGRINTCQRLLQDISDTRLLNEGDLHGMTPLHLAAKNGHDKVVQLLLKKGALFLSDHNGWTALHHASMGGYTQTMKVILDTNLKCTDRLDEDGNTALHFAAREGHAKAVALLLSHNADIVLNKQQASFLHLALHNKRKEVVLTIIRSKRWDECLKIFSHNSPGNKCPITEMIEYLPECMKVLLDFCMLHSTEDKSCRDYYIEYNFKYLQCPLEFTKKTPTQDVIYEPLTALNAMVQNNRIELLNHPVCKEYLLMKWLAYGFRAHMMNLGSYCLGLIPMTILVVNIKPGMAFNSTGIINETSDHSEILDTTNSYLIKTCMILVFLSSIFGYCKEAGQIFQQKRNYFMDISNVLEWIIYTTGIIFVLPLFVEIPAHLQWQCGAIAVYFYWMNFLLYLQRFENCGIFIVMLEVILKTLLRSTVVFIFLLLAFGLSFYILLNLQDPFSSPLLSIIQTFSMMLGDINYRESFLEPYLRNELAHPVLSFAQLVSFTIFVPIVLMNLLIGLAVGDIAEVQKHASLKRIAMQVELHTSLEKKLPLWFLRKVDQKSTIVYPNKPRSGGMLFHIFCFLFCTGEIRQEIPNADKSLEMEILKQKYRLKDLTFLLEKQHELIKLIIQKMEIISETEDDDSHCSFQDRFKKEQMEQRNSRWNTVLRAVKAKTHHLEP

Turning to `O=C(/C=C/c1ccc(Br)cc1)Nc1ccccc1C(=O)O`, the IC50 was found to be 10 µM.

For `CC(=Cc1ccc(Cl)cc1)C(C)N=O` (configuration not stated) [4-(4-chlorophenyl)-3-methylbut-3-en-2-one oxime], the half-inhibitory concentration (IC50) was 4.47 µM and 4.46 µM.
